Patent publication US11285119B2, “Anti-inflammatory composition” (NEOPHARM CO., LTD., priority 2016, dated 2022)

What was measured:
IL-17A = experiment: Anti-inflammatory effect: IL-17A expression in atopic dermatitis-induced 3D culture tissue (immunohistochemistry); assay type: cell-based; settings: compared with the skin model in which atopic dermatitis was induced, 72 hours, quantified immunohistochemistry (FIG. 2), read-out: IL-17A inhibitory effect
Method: (§1) In order to measure the anti-inflammatory efficacy, atopic dermatitis was induced with respect to IL-8 and IL-17A, which are inflammation-inducing cytokines, and expression amounts thereof were measured.
(§2) In order to induce atopic dermatitis, the 3D culture tissue (EpiDerm Full Thickness 400, sold by MatTek) media containing Poly (I:C), TNF-α, IL-4 and IL-13 were used, and treated for 72 hours with N-(2-hydroxyethyl)octanamide at a final concentration of 100 μM. Then, the 3D culture tissue was immobilized on formalin to make a paraffin block, and the degree of expression of inflammation-inducing cytokine was evaluated.
(§3) In FIG. 1, AD represents a skin model in which atopic dermatitis was induced, and the anti-inflammatory effect was evaluated based on the expression amounts of IL-8 and IL-17A.
(§4) Further, the inhibitory effect of each cytokine was quantified based on the results obtained through the immunohistochemistry obtained in FIG. 1, and shown in FIG. 2.

IL-8 = experiment: Anti-inflammatory effect: IL-8 expression in atopic dermatitis-induced 3D culture tissue (immunohistochemistry); assay type: cell-based; settings: compared with the skin model in which atopic dermatitis was induced, 72 hours, quantified immunohistochemistry (FIG. 2), read-out: IL-8 inhibitory effect
Method: as §1, §2, §3, §4

atopic dermatitis = experiment: Atopic dermatitis improvement effect (EASI score) in pediatric patients; assay type: in vivo, human; settings: 30 pediatric patients with atopic dermatitis, twice a day for 4 weeks
Method: In order to measure atopic dermatitis improvement effect, the anti-inflammatory compositions were prepared according to the following Examples. Here, the atopic dermatitis improvement effect was measured using an eczema area severity index (EASI) score. 30 pediatric patients with atopic dermatitis were treated twice a day for 4 weeks, and then effects on atopic symptoms were measured.

[1] = test system: human fibroblast (ATCC 2076); experiment: Confirmation of cytotoxicity (MTT cell viability); assay type: cell-based; settings: for Cell viability (%): human fibroblast, MTT
Method: The cell viability for human fibroblast (ATCC 2076) was measured using the anti-inflammatory composition prepared in the following Examples.
The human fibroblast (ATCC 2076) with a concentration of 5×10^4 cells/ml was inoculated into a 24-well culture plate of Iscove's Modified Dulbecco's Medium (IMDM, GIBCO) containing 10% bovine serum. […] Then, the supernatant was removed, the cells were washed with 200 μl of 5% phosphate buffered saline (PBS), 1.0 ml of MTT solution was added to each well, and after 4 hours, and the MTT was removed. Next, 1.0 ml of DMSO was added to each well, and incubation was performed overnight at 37° C. The absorbance at 570 nm was measured to determine the cell viability using Equation 1 below, and results thereof are shown in Table 1 below. Here, as a negative control group, a test group in which the active ingredient was not used was adopted. Cell viability (%)=(A570λvalue/B570λvalue)×100 [Equation 1]
A: Absorbance value at 570 nm of Example
B: Absorbance value at 570 nm of negative control group

**Q.** `CCCCC(CC)C(=O)NC(CO)CO` (stereo not shown) [Example 1, N-(1,3-dihydroxypropan-2-yl)-2-ethylhexanamide] was tested. Which inhibition at 100 µM (IL-17A) did it give?
**A.** ≥ 58.9%

**Q.** And the inhibition at 100 µM (IL-8)?
**A.** ≥ 48.5%

**Q.** And the “Atopic dermatitis improvement effect (EASI score)” value (atopic dermatitis)?
**A.** significant numerical decrease

**Q.** What about the Cytotoxicity ([1]; in the concentration range of the evaluation method) of the same compound?
**A.** no cytotoxicity

**Q.** What about the “Cell viability (%)” value ([1]; used amount 0.00064 μM) of the same compound?
**A.** 110%

**Q.** And the “Cell viability (%)” value ([1]; used amount 0.0032 μM)?
**A.** 106%

**Q.** And the “Cell viability (%)” value ([1]; used amount 0.016 μM)?
**A.** 99%

**Q.** And the “Cell viability (%)” value ([1]; used amount 0.08 μM)?
**A.** 100%

**Q.** What about the “Cell viability (%)” value ([1]; used amount 0.4 μM) of the same compound?
**A.** 98%

**Q.** What about the “Cell viability (%)” value ([1]; used amount 2 μM) of the same compound?
**A.** 101%

**Q.** What about the “Cell viability (%)” value ([1]; used amount 10 μM) of the same compound?
**A.** 101%

**Q.** And the “Cell viability (%)” value ([1]; used amount 50 μM)?
**A.** 101%

**Q.** And the “Cell viability (%)” value ([1]; used amount 250 μM)?
**A.** 108%
